According to ChEMBL document CHEMBL1124269, “1,3-Diamino-6,7-dimethoxyisoquinoline derivatives as potential alpha 1-adrenoceptor antagonists” (J Med Chem, 1988):

Legend:
[1] = molecular target: T1, Adrenergic receptor alpha-1 (Rattus norvegicus, UniProt P15823+P23944+P43140); assay: Binding affinity to Alpha-1 adrenergic receptor by displacement of [3H]prazosin; type: protein assay
T1 sequence (P15823 whole entry): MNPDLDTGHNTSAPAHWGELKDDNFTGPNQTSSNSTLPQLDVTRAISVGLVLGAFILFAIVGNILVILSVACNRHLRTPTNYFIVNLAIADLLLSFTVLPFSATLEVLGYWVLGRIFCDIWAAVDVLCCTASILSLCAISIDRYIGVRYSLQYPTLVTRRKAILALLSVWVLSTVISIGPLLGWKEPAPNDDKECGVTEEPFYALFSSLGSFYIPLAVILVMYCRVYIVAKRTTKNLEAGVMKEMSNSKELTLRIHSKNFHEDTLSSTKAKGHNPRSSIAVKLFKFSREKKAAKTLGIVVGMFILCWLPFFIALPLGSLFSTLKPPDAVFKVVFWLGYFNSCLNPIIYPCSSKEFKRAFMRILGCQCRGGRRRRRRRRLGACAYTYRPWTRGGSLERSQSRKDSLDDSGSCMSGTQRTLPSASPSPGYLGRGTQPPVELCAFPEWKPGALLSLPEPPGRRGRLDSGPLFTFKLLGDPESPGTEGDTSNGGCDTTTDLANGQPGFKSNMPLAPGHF
T1 sequence (P23944 whole entry): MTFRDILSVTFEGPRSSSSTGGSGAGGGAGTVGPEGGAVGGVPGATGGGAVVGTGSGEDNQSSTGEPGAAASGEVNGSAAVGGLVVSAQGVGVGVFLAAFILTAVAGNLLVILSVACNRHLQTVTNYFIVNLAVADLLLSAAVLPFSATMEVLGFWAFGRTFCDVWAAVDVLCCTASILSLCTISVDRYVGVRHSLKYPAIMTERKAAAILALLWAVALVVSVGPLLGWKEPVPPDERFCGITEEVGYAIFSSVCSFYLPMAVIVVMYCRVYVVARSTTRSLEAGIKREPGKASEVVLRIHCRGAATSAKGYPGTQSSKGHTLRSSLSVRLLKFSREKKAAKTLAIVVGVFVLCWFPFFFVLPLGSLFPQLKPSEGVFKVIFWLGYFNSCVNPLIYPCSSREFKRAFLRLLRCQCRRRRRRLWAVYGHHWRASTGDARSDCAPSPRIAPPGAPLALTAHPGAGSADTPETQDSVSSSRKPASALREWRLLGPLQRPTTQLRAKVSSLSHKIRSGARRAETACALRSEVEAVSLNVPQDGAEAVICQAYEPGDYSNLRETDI
T1 sequence (P43140 whole entry): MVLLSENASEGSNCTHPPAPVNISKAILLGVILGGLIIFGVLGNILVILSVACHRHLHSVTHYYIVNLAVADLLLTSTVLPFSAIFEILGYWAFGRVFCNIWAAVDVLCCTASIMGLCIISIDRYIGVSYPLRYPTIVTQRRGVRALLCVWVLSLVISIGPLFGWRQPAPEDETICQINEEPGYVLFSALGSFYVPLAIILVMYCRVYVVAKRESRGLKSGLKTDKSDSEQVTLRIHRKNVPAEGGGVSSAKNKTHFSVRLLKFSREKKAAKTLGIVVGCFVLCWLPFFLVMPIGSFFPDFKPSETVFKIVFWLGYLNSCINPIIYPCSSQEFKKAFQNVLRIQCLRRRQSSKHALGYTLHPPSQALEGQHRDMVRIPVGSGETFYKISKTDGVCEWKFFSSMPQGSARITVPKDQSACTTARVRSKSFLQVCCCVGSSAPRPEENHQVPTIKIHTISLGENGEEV

[2] = molecular target: T2, Adrenergic receptor alpha-2 (Rattus norvegicus, UniProt P22086+P19328+P22909); assay: Binding affinity to alpha-2 adrenergic receptor by displacement of [3H]clonidine; type: protein assay
T2 sequence (P22086 whole entry): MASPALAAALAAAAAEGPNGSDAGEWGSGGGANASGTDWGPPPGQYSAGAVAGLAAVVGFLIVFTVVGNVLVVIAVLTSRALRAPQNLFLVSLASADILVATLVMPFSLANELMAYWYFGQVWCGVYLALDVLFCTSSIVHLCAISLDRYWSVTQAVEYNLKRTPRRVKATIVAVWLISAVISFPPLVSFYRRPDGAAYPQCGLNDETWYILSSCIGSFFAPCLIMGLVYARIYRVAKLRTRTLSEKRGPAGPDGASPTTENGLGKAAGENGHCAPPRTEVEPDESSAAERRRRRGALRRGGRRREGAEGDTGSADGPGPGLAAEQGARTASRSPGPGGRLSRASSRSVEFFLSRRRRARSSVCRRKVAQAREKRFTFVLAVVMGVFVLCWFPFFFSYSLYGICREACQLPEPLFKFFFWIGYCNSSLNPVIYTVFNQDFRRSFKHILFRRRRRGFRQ
T2 sequence (P19328 whole entry): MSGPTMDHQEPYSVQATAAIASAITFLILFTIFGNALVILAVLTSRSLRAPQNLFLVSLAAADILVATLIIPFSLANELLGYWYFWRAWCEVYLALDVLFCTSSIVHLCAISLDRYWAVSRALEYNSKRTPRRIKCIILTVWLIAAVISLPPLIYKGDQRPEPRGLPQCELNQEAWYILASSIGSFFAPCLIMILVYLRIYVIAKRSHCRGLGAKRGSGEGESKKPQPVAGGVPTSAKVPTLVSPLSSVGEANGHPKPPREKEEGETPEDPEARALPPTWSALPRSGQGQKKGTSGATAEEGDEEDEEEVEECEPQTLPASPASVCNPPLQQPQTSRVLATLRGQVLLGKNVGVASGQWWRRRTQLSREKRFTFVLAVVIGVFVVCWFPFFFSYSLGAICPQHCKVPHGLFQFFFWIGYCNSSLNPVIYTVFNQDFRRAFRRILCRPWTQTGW
T2 sequence (P22909 whole entry): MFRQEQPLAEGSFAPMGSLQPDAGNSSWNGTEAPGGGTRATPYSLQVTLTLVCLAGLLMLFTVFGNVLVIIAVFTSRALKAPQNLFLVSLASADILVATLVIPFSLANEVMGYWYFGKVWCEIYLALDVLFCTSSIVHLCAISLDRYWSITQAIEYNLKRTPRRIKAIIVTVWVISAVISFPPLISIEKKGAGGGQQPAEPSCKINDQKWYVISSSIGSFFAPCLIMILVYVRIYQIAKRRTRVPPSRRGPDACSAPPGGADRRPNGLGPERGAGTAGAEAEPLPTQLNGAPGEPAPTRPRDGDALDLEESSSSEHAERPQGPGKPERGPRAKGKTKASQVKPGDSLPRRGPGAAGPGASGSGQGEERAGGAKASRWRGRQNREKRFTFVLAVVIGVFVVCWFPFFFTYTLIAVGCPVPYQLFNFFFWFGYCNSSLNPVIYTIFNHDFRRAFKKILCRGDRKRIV

Rattus norvegicus [3] = assay: Percent reduction of SHR (Spontaneous Hypertensive Rat) blood pressure at 1 hr at a dose 10 mg/kg peroral administration; type: functional; conditions: route oral
Rattus norvegicus [4] = assay: Percent reduction of SHR (Spontaneous Hypertensive Rat) blood pressure at 4.5 hr at a dose 10 mg/kg peroral administration; type: functional; conditions: route oral
[5] = Ionization constant of the compound
Rattus norvegicus [6] = assay: Percent reduction of SHR (Spontaneous Hypertensive Rat) blood pressure at 1 hr at a dose 3 mg/kg peroral administration; conditions: route oral
Rattus norvegicus [7] = assay: Percent reduction of SHR (Spontaneous Hypertensive Rat) blood pressure at 4.5 hr at a dose 3 mg/kg peroral administration; conditions: route oral
Rattus norvegicus [8] = assay: Percent reduction of SHR (Spontaneous Hypertensive Rat) blood pressure at 4.5 hr at a dose 3 mg/kg peroral administration; type: functional; conditions: route oral
Rattus norvegicus [9] = assay: Percent reduction of SHR (Spontaneous Hypertensive Rat) blood pressure at 1 hr at a dose 3 mg/kg peroral administration; type: functional; conditions: route oral

Row | Compound | Ki [1] | Ki [2] | Ki ([1]; read-out: Ki) [nM] | pKa [5] | Reduction (Rattus norvegicus [3]) [%] | Reduction (Rattus norvegicus [4]) [%] | Reduction (Rattus norvegicus [6]) [%] | Reduction (Rattus norvegicus [7]) [%] | Reduction (Rattus norvegicus [8]) [%] | Reduction (Rattus norvegicus [9]) [%]
1 | COc1cc2cc(N3CCCCC3)nc(N)c2cc1OC | >> 1 uM | >> 1 uM | – | – | 15 | 11 | – | – | – | –
2 | COc1cc2cc(N3CCN(C(=O)c4ccco4)CC3)nc(N)c2cc1OC | – | – | 160 | – | 4 | 6 | – | – | – | –
3 | COc1cc2nc(N3CCN(C(=O)c4ccco4)CC3)nc(N)c2cc1OC [PRAZOSIN] | – | – | – | 6.8 | – | – | – | – | 15 | 24

Further lines, with some results ahead:

Row | Ki [1] | Ki [2] | Ki ([1]; read-out: Ki) [nM] | pKa [5] | Compound | Reduction (Rattus norvegicus [3]) [%] | Reduction (Rattus norvegicus [4]) [%] | Reduction (Rattus norvegicus [6]) [%] | Reduction (Rattus norvegicus [7]) [%] | Reduction (Rattus norvegicus [8]) [%] | Reduction (Rattus norvegicus [9]) [%]
4 | >> 1 uM | >> 1 uM | – | 7.1 | COc1cc2cc(N(C)C)nc(N)c2cc1OC | 12 | 10 | – | – | – | –
5 | – | > 1000 nM | 4.1 | 8.1 | COc1cc2nc(N(C)C)nc(N)c2cc1OC | – | – | – | – | – | –
6 | – | > 1000 nM | 11.4 | 9.3 | COc1cc2nc(N(C)C)cc(N)c2cc1OC | – | – | 12 | 11 | – | –
